{"source": "patent US8426342B2", "about": "“Method for weed control in lawn” (priority 2008, dated 2013)", "key": {"Capsella bursa pastoris": {"tested_on": "Capsella bursa pastoris", "assay": "Greenhouse herbicidal effect in weed control ex. 6.2, 2- to 3-leaves stage", "format": "in vivo", "source_text": "(§1) That means, when applying the combinations according to the invention, herbicidal effects are observed on a harmful plant species which exceed the formal total of the effects of the herbicides present when these are applied by themselves. Alternatively, it is observed in some cases that a lower application rate is required for the herbicide combination in order to achieve the same effect on a harmful plant species in comparison with the individual products.\n(§2) When the data observed already exceed the formal total (=E^A) of the data in the experiments with individual applications, they likewise exceed the expected value according to Colby, which is calculated using the formula below and is likewise regarded as an indication of synergism (cf. S. R. Colby; in Weeds 15 (1967) pp. 20 to 22): E=A+B−(A·B/100)\n(§3) In this formula: • A=action of active compound (A) in % at an application rate of a g of AS/ha; • B=action of active compound (B) in % at an application rate of b g of AS/ha; • E=expected value of the action of the combination (A)+(B) in % at the combined application rate a+b g of AS/ha.\n(§4) The data observed in the experiments show, at suitably low dosages, an action of the combinations which exceeds the expected values according to Colby (=E^C)."}, "[1]": {"tested_on": "specific warm season turf grasses", "assay": "Field trial ex. 7.2, turf grass safety in post-emergence application (Table 40)", "format": "in vivo", "source_text": "(§5) Seeds or rhizome pieces of monocotyledonous and dicotyledonous weed plants and specific warm season turf grasses were placed in the field in sandy loam soil, covered with soil and grown until the plants had reached the leaves stage indicated in the tables. […] The herbicidal effect was visually evaluated as percent (%) herbicidal effect compared to untreated control plants. The results are summarized in Table 40 below and show a synergistic increase in herbicidal effect of the mixtures of active ingredients and a good safety of the turf grass."}, "[2]": {"tested_on": "monocotyledonous and dicotyledonous weed plants", "assay": "Field trial ex. 7.1, weed control in pre-emergence application, 12 DAT (Tables 38, 39)", "format": "in vivo", "experimental": "as §2\nSeeds or rhizome pieces of monocotyledonous and dicotyledonous weed plants were placed in the field in sandy loam soil and covered with soil. […] 12 days after application (12 DAT), the herbicidal effect on the developed weed plants was visually evaluated as percent (%) herbicidal effect compared to untreated control plants."}, "[3]": {"tested_on": "monocotyledonous and dicotyledonous weed plants", "assay": "Field trial ex. 7.2, weed control in post-emergence application (Table 40)", "format": "in vivo", "conditions": "2-leaves stage, 12 DAT", "experimental": "as §2, §3, §5"}, "weed plants": {"tested_on": "weed plants", "assay": "Greenhouse herbicidal effect in weed control ex. 6.2 (Tables 34 to 37)", "format": "in vivo", "conditions": "post-emergence; for Herbicidal effect (%) 7 DAT on Trifolium pratense: 3-leaves stage", "experimental": "as §2"}, "Cynodon dactylon": {"tested_on": "Cynodon dactylon", "assay": "Greenhouse selectivity testing ex. 6.1, turf grass plants in 1-leaf stage, % injury", "experimental": "Turf grass plants were grown in sandy loam soil in the greenhouse under good growing conditions up to the 1-leaf stage. In parallel tests, a formulation (water-dispersable powder) containing a mixture of the compounds no. […] The turf grass plants were further kept under good growing conditions. 7 days after application the selectivity was visually evaluated as percent (%) injury compared to untreated control plants."}, "Taraxacum officinalis": {"tested_on": "Taraxacum officinalis", "assay": "Greenhouse herbicidal effect in weed control ex. 6.2, 1- to 2-leaves stage", "format": "in vivo", "source_text": "as §1, §2, §3, §4"}, "[4]": {"conditions": "Cynodon dactylon, in vivo, 7 days after application"}}, "note": "Marks after values point to notes of the source that are not given here."}
{"compound": "N#Cc1cc(Br)c(O)c(Br)c1", "note": "[Bromoxynil]", "values": [{"measurement": "Herbicidal effect (%) 7 DAT on Capsella bursa pastoris", "setting": "Capsella bursa pastoris; 100 g a.i./ha", "result": 30, "unit": "%"}]}
{"compound": "CCOC(=O)C(Cl)Cc1cc(-n2nc(C)n(C(F)F)c2=O)c(F)cc1Cl", "note": "(stereo not drawn) [Carfentrazone-ethyl]", "values": [{"measurement": "Herbicidal effect (%) on Paspalum notatum (warm season turf grass)", "setting": "[1]; field, post-emergence, 3-leaves stage, 15 g a.i./ha, 7 DAT", "result": 0, "unit": "%"}, {"measurement": "Herbicidal effect (%) 12 DAT on Brachiaria decumbens", "setting": "[2]; Table 39, field, 15 g a.i./ha", "result": 0, "unit": "%"}, {"measurement": "Herbicidal effect (%) on Commelina benghalensis", "setting": "[3]; 15 g a.i./ha", "result": 59, "unit": "%"}, {"measurement": "Herbicidal effect (%) 7 DAT on Trifolium pratense", "setting": "weed plants; 8 g a.i./ha", "result": 0, "unit": "%"}]}
{"compound": "CCOc1ccccc1OS(=O)(=O)NC(=O)Nc1nc(OC)cc(OC)n1", "note": "[Ethoxysulfuron]", "values": [{"measurement": "Herbicidal effect (%) 7 DAT on Capsella bursa pastoris", "setting": "Capsella bursa pastoris; 20 g a.i./ha", "result": 50, "unit": "%"}, {"measurement": "Selectivity evaluation (% injury) 7 DAT on Cynodon dactylon", "setting": "Cynodon dactylon; [4]", "result": 0, "unit": "%"}, {"measurement": "Herbicidal effect (%) 12 DAT on Brachiaria decumbens", "setting": "[2]; Table 38, field, 30 g a.i./ha", "result": 0, "unit": "%"}]}
{"compound": "CCOC(=O)[C@@H](C)Oc1ccc(Oc2nc3ccc(Cl)cc3o2)cc1", "note": "[Fenoxaprop-P-ethyl]", "values": [{"measurement": "Herbicidal effect (%) 12 DAT on Brachiaria decumbens", "setting": "[2]; Table 39, field, 60 g a.i./ha", "result": 0, "unit": "%"}, {"measurement": "Herbicidal effect (%) 7 DAT on Trifolium pratense", "setting": "weed plants; 45 g a.i./ha", "result": 0, "unit": "%"}]}
{"compound": "Nc1c(Cl)c(F)nc(OCC(=O)O)c1Cl", "note": "[Fluroxypyr]", "values": [{"measurement": "Herbicidal effect (%) 7 DAT on Capsella bursa pastoris", "setting": "Capsella bursa pastoris; 100 g a.i./ha", "result": 60, "unit": "%"}, {"measurement": "Selectivity evaluation (% injury) 7 DAT on Cynodon dactylon", "setting": "Cynodon dactylon; [4]", "result": 0, "unit": "%"}]}
{"compound": "O=C(O)CNCP(=O)([O-])O.[K+]", "note": "[Glyphosate-potassium salt (K salt)]", "values": [{"measurement": "Herbicidal effect (%) on Paspalum notatum (warm season turf grass)", "setting": "[1]; field, post-emergence, 3-leaves stage, 620 g a.i./ha, 7 DAT, turf grass used is not glyphosate tolerant", "result": "23^5) %"}, {"measurement": "Herbicidal effect (%) on Paspalum notatum (warm season turf grass)", "setting": "[1]; field, post-emergence, 3-leaves stage, 840 g a.i./ha, 7 DAT, turf grass used is not glyphosate tolerant", "result": "40^5) %"}, {"measurement": "Herbicidal effect (%) 12 DAT on Brachiaria decumbens", "setting": "[2]; Table 39, field, 620 g a.i./ha", "result": 0, "unit": "%"}, {"measurement": "Herbicidal effect (%) 12 DAT on Brachiaria decumbens", "setting": "[2]; Table 39, field, 840 g a.i./ha", "result": 0, "unit": "%"}, {"measurement": "Herbicidal effect (%) on Commelina benghalensis", "setting": "[3]; 620 g a.i./ha", "result": 62, "unit": "%"}, {"measurement": "Herbicidal effect (%) on Commelina benghalensis", "setting": "[3]; 840 g a.i./ha", "result": 62, "unit": "%"}]}
{"compound": "O=C(O)CNCP(=O)(O)O", "note": "[Glyphosate]", "values": [{"measurement": "Herbicidal effect (%) 7 DAT on Taraxacum officinalis", "setting": "Taraxacum officinalis; 200 g a.i./ha", "result": 40, "unit": "%"}]}
{"compound": "Cc1cc(Cl)ccc1OCC(=O)O", "note": "[MCPA, reference compound]", "values": [{"measurement": "Selectivity evaluation (% injury) 7 DAT on Cynodon dactylon", "setting": "Cynodon dactylon; 500 g a.i./ha, 7 DAT, greenhouse, 1-leaf stage", "result": 0, "unit": "%"}, {"measurement": "Herbicidal effect (%) 7 DAT on Trifolium pratense", "setting": "weed plants; 500 g a.i./ha", "result": 30, "unit": "%"}]}
{"compound": "Cc1cc(Cl)ccc1O[C@@H](C)C(=O)O", "note": "[Mecoprop-P]", "values": [{"measurement": "Herbicidal effect (%) 7 DAT on Taraxacum officinalis", "setting": "Taraxacum officinalis; 500 g a.i./ha", "result": 20, "unit": "%"}]}
{"compound": "COC(=O)c1ccc(CNS(C)(=O)=O)cc1S(=O)(=O)NC(=O)Nc1nc(OC)cc(OC)n1", "note": "[Mesosulfuron-methyl, reference compound]", "values": [{"measurement": "Herbicidal effect (%) on Paspalum notatum (warm season turf grass)", "setting": "[1]; in vivo", "result": 0, "unit": "%"}, {"measurement": "Selectivity evaluation (% injury) 7 DAT on Cynodon dactylon", "setting": "Cynodon dactylon; 5 g a.i./ha, 7 DAT, greenhouse, 1-leaf stage", "result": 0, "unit": "%"}, {"measurement": "Herbicidal effect (%) 12 DAT on Brachiaria decumbens", "setting": "[2]; Table 38, field, 5 g a.i./ha", "result": 0, "unit": "%"}, {"measurement": "Herbicidal effect (%) on Commelina benghalensis", "setting": "[3]; 5 g a.i./ha", "result": 47, "unit": "%"}]}
{"compound": "COc1cc(OC)n2nc(S(=O)(=O)Nc3c(Cl)ccc(C)c3Cl)nc2n1", "note": "[Metosulam]", "values": [{"measurement": "Herbicidal effect (%) 7 DAT on Taraxacum officinalis", "setting": "Taraxacum officinalis; 10 g a.i./ha", "result": 10, "unit": "%"}, {"measurement": "Selectivity evaluation (% injury) 7 DAT on Cynodon dactylon", "setting": "Cynodon dactylon; [4]", "result": 0, "unit": "%"}]}
{"compound": "COC(=O)c1ccccc1S(=O)(=O)NC(=O)Nc1nc(C)nc(OC)n1", "note": "[Metsulfuron-methyl]", "values": [{"measurement": "Herbicidal effect (%) 7 DAT on Trifolium pratense", "setting": "weed plants; 5 g a.i./ha", "result": 30, "unit": "%"}]}
{"compound": "Nc1c(Cl)c(Cl)nc(C(=O)O)c1Cl", "note": "[Picloram, reference compound]", "values": [{"measurement": "Selectivity evaluation (% injury) 7 DAT on Cynodon dactylon", "setting": "Cynodon dactylon; 300 g a.i./ha, 7 DAT, greenhouse, 1-leaf stage", "result": 0, "unit": "%"}, {"measurement": "Herbicidal effect (%) 7 DAT on Echinocloa crus-galli", "setting": "weed plants; 3- to 4-leaves stage, 300 g a.i./ha", "result": 30, "unit": "%"}]}
{"compound": "CCS(=O)(=O)c1cccnc1S(=O)(=O)NC(=O)Nc1nc(OC)cc(OC)n1", "note": "[Rimsulfuron, reference compound]", "values": [{"measurement": "Selectivity evaluation (% injury) 7 DAT on Cynodon dactylon", "setting": "Cynodon dactylon; [4]", "result": 10, "unit": "%"}, {"measurement": "Herbicidal effect (%) 7 DAT on Trifolium pratense", "setting": "weed plants; 5 g a.i./ha", "result": 40, "unit": "%"}]}
